# Test results from publication PMC9552234.
# Test: amide bond formation (macrolactamization of free amino acid tripeptides containing anthranilic acid), HATU (1.2 equiv), Et3N (1.2 equiv), high dilution
# Settings: 10-membered ring, CH2Cl2, 3.0 mM, 0.0 °C, 2 steps
smiles,measurement,setting,value
C=CC(C)(C)[C@@]12C[C@H]3C(=O)N[C@@H](C(C)C)C(=O)Nc4ccccc4C(=O)N3[C@@H]1N(C(C)=O)c1ccccc12 [exo-75 -> L-Trp-exo-11 (incl. Boc removal)],"ring closure, yield over several steps","from C=CC(C)(C)[C@@]12C[C@@H](C(=O)N[C@H](C(=O)Nc3ccccc3C(=O)O)C(C)C)N[C@@H]1N(C(C)=O)c1ccccc12, 1.5 h",97%
C=CC(C)(C)[C@]12C[C@H]3C(=O)N[C@@H](C(C)C)C(=O)Nc4ccccc4C(=O)N3[C@H]1N(C(C)=O)c1ccccc12 [endo-75 -> L-Trp-endo-11 (incl. Boc removal)],"ring closure, yield over several steps","from C=CC(C)(C)[C@]12C[C@@H](C(=O)N[C@H](C(=O)Nc3ccccc3C(=O)O)C(C)C)N[C@H]1N(C(C)=O)c1ccccc12, 2.0 h",87%
"CC(=O)N1c2ccccc2[C@H]2C[C@H]3C(=O)N[C@@H](C(C)C)C(=O)Nc4ccccc4C(=O)N3[C@H]21 (mixture of isomers) [endo-47 -> endo-48 (1 step, from exo/endo mixture)]","ring closure, yield over several steps","from CC(=O)N1c2ccccc2[C@H]2C[C@@H](C(=O)N[C@H](C(=O)Nc3ccccc3C(=O)O)C(C)C)N[C@H]21, 1.0 h",19%
C=CC(C)(C)[C@]12C[C@H]3C(=O)N[C@@H](C(C)C)C(=O)Nc4ccccc4C(=O)N3[C@H]1N(C(C)=O)c1ccccc12 [endo-69 -> L-Trp-endo-11 (slow addition; decomposition)],"ring closure, yield over several steps",from C=CC(C)(C)[C@]12C[C@@H](C(=O)O)N(C(=O)c3ccccc3NC(=O)[C@@H](N)C(C)C)[C@H]1N(C(C)=O)c1ccccc12,0%
CC(=O)n1cc(C[C@@H]2NC(=O)c3ccccc3NC(=O)[C@H](C(C)C)NC2=O)c2ccccc21 [H-Trp(1-Ac)-Val-Abz(2)-OH],"ring closure, yield over several steps",from CC(=O)n1cc(C[C@H](N)C(=O)N[C@H](C(=O)Nc2ccccc2C(=O)O)C(C)C)c2ccccc21,0%
C=CC(C)(C)[C@@]12C[C@H]3C(=O)N[C@@H](C(C)C)C(=O)Nc4ccccc4C(=O)N3[C@@H]1N(C(C)=O)c1ccccc12 [exo-69 -> L-Trp-exo-11 (slow addition; trace)],"ring closure, yield over several steps",from C=CC(C)(C)[C@@]12C[C@@H](C(=O)O)N(C(=O)c3ccccc3NC(=O)[C@@H](N)C(C)C)[C@@H]1N(C(C)=O)c1ccccc12,0%
CC(=O)n1cc(C[C@H]2NC(=O)c3ccccc3NC(=O)[C@H](C(C)C)NC2=O)c2ccccc21 [H-D-Trp(1-Ac)-Val-Abz(2)-OH],"ring closure, yield over several steps","from CC(=O)n1cc(C[C@@H](N)C(=O)N[C@H](C(=O)Nc2ccccc2C(=O)O)C(C)C)c2ccccc21, 1.17 h",53%
CC(C)[C@@H]1NC(=O)[C@@H](Cc2cn(C(=O)OC(C)(C)C)c3ccccc23)NC(=O)c2ccccc2NC1=O [H-D-Trp(1-Boc)-Val-Abz(2)-OH],"ring closure, yield over several steps","from CC(C)[C@H](NC(=O)[C@H](N)Cc1cn(C(=O)OC(C)(C)C)c2ccccc12)C(=O)Nc1ccccc1C(=O)O, 0.83 h",56%
"CC(=O)N1c2ccccc2[C@@H]2C[C@H]3C(=O)N[C@@H](C(C)C)C(=O)Nc4ccccc4C(=O)N3[C@@H]21 (mixture of isomers) [exo-47 -> exo-48 (1 step, from exo/endo mixture)]","ring closure, yield over several steps","from CC(=O)N1c2ccccc2[C@@H]2C[C@@H](C(=O)N[C@H](C(=O)Nc3ccccc3C(=O)O)C(C)C)N[C@@H]21, 1.0 h",29%
